Here are results for two compounds from EP3468532B1, “DISPENSING DEVICE AND PHARMACEUTICAL COMPOSITION FOR THE TREATMENT OF RHINITIS” (Glenmark Specialty S.A., priority 2017, dated 2019).

Where two headings read alike, the source gives them in different places.

Data set [1] is described as follows: Example 7: Phase III clinical study, plasma pharmacokinetics of TP-1. The class given is in vivo, human. The note with it: for AUC / Cmax / Tmax: human, plasma; for Tmax: read-out: Tmax, Median (range). From the text: This study consisted of four visits to the study site. After the initial screening visit (Visit 1), subjects who met all study selection criteria were required to undergo a single-blind placebo run-in period for 7-10 days. Following the completion of the run-in period, eligible subjects meeting the randomization criteria were enrolled and randomized to one of the four treatment arms. Subjects were dispensed medication as per the randomization list. Randomized subjects were required to undergo a 2 week (14 days) treatment period as per the protocol to assess the efficacy and safety of the assigned treatment. Subjects were instructed to record the symptom scores in a symptom assessment diary. They were also scheduled to have at least two blood samples for PK assessment during the treatment period.
• Plasma PK: Maximum plasma concentration (Cmax), time to attain Cmax (Tmax), and area under the plasma concentration-time curve over the dosing interval (AUCtau) will be estimated for mometasone furoate and olopatadine on Day 1 and Day 8 based on the pharmacokinetic analysis set (PKAS).
The pharmacokinetics (PK) of TP-1 were measured for a subset of patients in the phase III clinical study on day 1 and day 8 (steady state).

The conditions of data set [2]: human, in vivo. On the procedure: The pharmacokinetics of olopatadine in a fixed dose combination of mometasone furoate and olopatadine hydrochloride nasal spray was evaluated in a clinical trial. The clinical trial was a randomized, single-center, single-dose, open-label, three-period, six-sequence, cross-over study to evaluate three treatments administered as a nasal spray. The three treatments included a combination of mometasone furoate and olopatadine hydrochloride nasal spray, olopatadine hydrochloride nasal spray and PATANASE® nasal spray.
(§1) The study consisted of a screening visit, 3 single-dose treatment periods with washout periods of 7 to 14 days between dosing in each treatment period, an early withdrawal visit if applicable, and a follow-up telephone call (or visit) 1 to 7 days after completing the third treatment period.
(§2) A total of 30 subjects were randomized to 1 of 6 treatment sequences and received at least 1 dose of study drug. All 30 subjects were included in the safety analysis set and the pharmacokinetic subset. All but 2 subjects completed the study per protocol.

Data set [3] is described as follows: Example 11: single-dose cross-over study, pharmacokinetics of mometasone furoate. It is filed as in vivo, human. The procedure: The pharmacokinetics of mometasone furoate in a fixed dose combination of mometasone furoate and olopatadine hydrochloride nasal spray was evaluated in a clinical trial. The clinical trial was a randomized, single-center, single-dose, open-label, three-period, six-sequence, cross-over study to evaluate three treatments administered by nasal spray. The three treatments included a combination of mometasone furoate and olopatadine hydrochloride nasal spray, mometasone furoate nasal spray and Nasonex® nasal spray.
as §1, §2

Setting [4] is: patients receiving TP-1, Day 8 (steady state).
The mark [5] stands for this setting: human, in vivo, inhaled or intranasal, mometasone furoate in fixed dose combination nasal spray, single dose.

A word on the Cmax: it is the peak of the concentration-time curve. The term Tmax denotes the time at which the peak concentration occurs. `CN(C)CC/C=C1/c2ccccc2COc2ccc(CC(=O)O)cc21` [Olopatadine]: the AUC in data set [1] (olopatadine in plasma, patients receiving TP-1, Day 1, read-out: AUCtau, Geo Mean (Geo CV%)) is 72.9 ng·h/mL; in data set [1] (olopatadine in plasma, patients receiving TP-1, Day 1, read-out: AUCtau, Mean (SD)), 75.5 ng·h/mL; in data set [1] (olopatadine in plasma, patients receiving TP-1, Day 1, read-out: AUCtau, Min-Max), 39.3 to 117 ng·h/mL; in data set [1] (olopatadine in plasma, patients receiving TP-1, Day 8 (steady state), read-out: AUCtau, Geo Mean (Geo CV%)), 85.7 ng·h/mL; in data set [1] (olopatadine in plasma, patients receiving TP-1, Day 8 (steady state), read-out: AUCtau, Mean (SD)) it was 88.8 ng·h/mL; in data set [1] (olopatadine in plasma, patients receiving TP-1, Day 8 (steady state), read-out: AUCtau, Min-Max), 53.4 to 138 ng·h/mL. Besides, the Cmax in data set [1] (olopatadine in plasma, patients receiving TP-1, Day 1, read-out: Cmax, Geo Mean (Geo CV%)) was 18.8 ng/mL; in data set [1] (olopatadine in plasma, patients receiving TP-1, Day 1, read-out: Cmax, Mean (SD)) it was 19.8 ng/mL; in data set [1] (olopatadine in plasma, patients receiving TP-1, Day 1, read-out: Cmax, Min-Max), 8.7 to 31.6 ng/mL; in data set [1] (olopatadine in plasma, patients receiving TP-1, Day 8 (steady state), read-out: Cmax, Geo Mean (Geo CV%)), 18.7 ng/mL; in data set [1] (olopatadine in plasma, patients receiving TP-1, Day 8 (steady state), read-out: Cmax, Mean (SD)) it was 19.8 ng/mL; in data set [1] (olopatadine in plasma, patients receiving TP-1, Day 8 (steady state), read-out: Cmax, Min-Max), 9.67 to 37.3 ng/mL. In data set [1] (patients receiving TP-1, Day 1), the Tmax worked out at 1 h. The “Tmax, Median (range)” value in data set [1] (setting [4]) was 1.00 (0.25-2) hour. The “Quantifiable concentrations observed until the last time point” value in data set [2] worked out at 48 h.

As a reminder, the AUC(0-t) is the area under the concentration-time curve up to a stated or last time point. Consider `C[C@@H]1C[C@H]2[C@@H]3CCC4=CC(=O)C=C[C@]4(C)[C@@]3(Cl)[C@@H](O)C[C@]2(C)[C@@]1(OC(=O)c1ccco1)C(=O)CCl` [Mometasone furoate], for which the AUC was 0.0262 ng·h/mL in data set [1] (mometasone furoate in plasma, patients receiving TP-1, Day 1, read-out: AUCtau, Geo Mean (Geo CV%)); 0.0286 ng·h/mL in data set [1] (mometasone furoate in plasma, patients receiving TP-1, Day 1, read-out: AUCtau, Mean (SD)); 0.0121 to 0.0725 ng·h/mL in data set [1] (mometasone furoate in plasma, patients receiving TP-1, Day 1, read-out: AUCtau, Min-Max); 0.0527 ng·h/mL in data set [1] (mometasone furoate in plasma, patients receiving TP-1, Day 8 (steady state), read-out: AUCtau, Geo Mean (Geo CV%)); 0.0584 ng·h/mL in data set [1] (mometasone furoate in plasma, patients receiving TP-1, Day 8 (steady state), read-out: AUCtau, Mean (SD)); 0.0257 to 0.124 ng·h/mL in data set [1] (mometasone furoate in plasma, patients receiving TP-1, Day 8 (steady state), read-out: AUCtau, Min-Max). In addition, the Cmax in data set [1] (mometasone furoate in plasma, patients receiving TP-1, Day 1, read-out: Cmax, Geo Mean (Geo CV%)) is 0.00627 ng/mL; in data set [1] (mometasone furoate in plasma, patients receiving TP-1, Day 1, read-out: Cmax, Mean (SD)) it was 0.00678 ng/mL; in data set [1] (mometasone furoate in plasma, patients receiving TP-1, Day 1, read-out: Cmax, Min-Max), 0.00267 to 0.0128 ng/mL; in data set [1] (mometasone furoate in plasma, patients receiving TP-1, Day 8 (steady state), read-out: Cmax, Geo Mean (Geo CV%)), 0.00917 ng/mL; in data set [1] (mometasone furoate in plasma, patients receiving TP-1, Day 8 (steady state), read-out: Cmax, Mean (SD)), 0.00992 ng/mL; in data set [1] (mometasone furoate in plasma, patients receiving TP-1, Day 8 (steady state), read-out: Cmax, Min-Max) it was 0.00358 to 0.0161 ng/mL. In addition, in data set [3] (setting [5]), the maximum concentration (Cmax) was determined as 0.0108 ng/mL. The Tmax in data set [1] (patients receiving TP-1, Day 1) turned out to be 1 h; in data set [3] (setting [5]), 1 h. The “Tmax, Median (range)” value in data set [1] (setting [4]) is 1.00 (0.25-2) hour. In addition, the area under the curve AUC(0-t) in data set [3] (setting [5]) was 0.085 ng·h/mL. In addition, the AUC(0-inf) in data set [3] (human, in vivo, inhaled or intranasal, mometasone furoate in fixed dose combination nasal spray, single dose, read-out: AUC(0-infinity)) was determined as 0.104 ng·h/mL. Also, the “Quantifiable concentrations observed until the last time point” value in data set [3] (single dose nasal spray) stood at 72 h.
